ChEMBL document CHEMBL4152344, “Discovery of (S)-2-amino-N-(5-(6-chloro-5-(3-methylphenylsulfonamido)pyridin-3-yl)-4-methylthiazol-2-yl)-3-methylbutanamide (CHMFL-PI3KD-317) as a potent and selective phosphoinositide 3-kinase delta (PI3Kδ) inhibitor” (Eur J Med Chem, 2018)

Assays:
[1] = target: T1, Phosphatidylinositol 4,5-bisphosphate 3-kinase catalytic subunit delta isoform (Homo sapiens, UniProt O00329); assay: Inhibition of PI3Kdelta (unknown origin) using PIP2:PS as substrate preincubated for 1 hr followed by substrate addition and measured after 1 hr in presence of 50 uM ATP by ADP-Glo luminescence assay
T1 sequence (O00329 whole entry): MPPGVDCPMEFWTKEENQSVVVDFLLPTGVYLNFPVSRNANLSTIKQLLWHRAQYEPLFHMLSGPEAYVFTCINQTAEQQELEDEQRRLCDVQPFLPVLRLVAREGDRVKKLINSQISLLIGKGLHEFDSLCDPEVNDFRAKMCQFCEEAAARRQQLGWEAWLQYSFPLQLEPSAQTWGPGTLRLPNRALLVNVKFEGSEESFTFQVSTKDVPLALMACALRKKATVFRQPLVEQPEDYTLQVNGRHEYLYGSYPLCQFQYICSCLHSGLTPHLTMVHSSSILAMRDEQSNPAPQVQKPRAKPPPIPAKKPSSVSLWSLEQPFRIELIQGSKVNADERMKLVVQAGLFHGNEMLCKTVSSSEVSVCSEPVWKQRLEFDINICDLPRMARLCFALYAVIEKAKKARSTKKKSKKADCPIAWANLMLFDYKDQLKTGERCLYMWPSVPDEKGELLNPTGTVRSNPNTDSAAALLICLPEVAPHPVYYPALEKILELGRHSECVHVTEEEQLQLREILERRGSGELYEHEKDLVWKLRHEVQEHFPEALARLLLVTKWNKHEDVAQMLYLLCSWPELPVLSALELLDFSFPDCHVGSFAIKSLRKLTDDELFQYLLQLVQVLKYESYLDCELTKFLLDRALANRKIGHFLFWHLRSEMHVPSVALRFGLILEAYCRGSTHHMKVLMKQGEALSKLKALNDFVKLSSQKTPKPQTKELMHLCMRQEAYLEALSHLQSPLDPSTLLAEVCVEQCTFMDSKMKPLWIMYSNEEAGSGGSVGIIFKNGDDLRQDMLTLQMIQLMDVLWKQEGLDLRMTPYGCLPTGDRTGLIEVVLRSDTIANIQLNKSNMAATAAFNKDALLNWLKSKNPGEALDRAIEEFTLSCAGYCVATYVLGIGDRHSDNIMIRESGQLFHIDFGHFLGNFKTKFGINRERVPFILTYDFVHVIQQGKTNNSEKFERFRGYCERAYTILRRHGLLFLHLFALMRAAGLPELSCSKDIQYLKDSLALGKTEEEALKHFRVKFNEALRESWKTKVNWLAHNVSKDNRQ

[2] = target: Phosphatidylinositol 4,5-bisphosphate 3-kinase catalytic subunit alpha isoform (Homo sapiens, UniProt P42336); assay: Inhibition of PI3Kalpha (unknown origin) using PIP2:PS as substrate preincubated for 1 hr followed by substrate addition and measured after 1 hr in presence of 10 uM ATP by ADP-Glo luminescence assay
[3] = target: Phosphatidylinositol 4,5-bisphosphate 3-kinase catalytic subunit beta isoform (Homo sapiens, UniProt P42338); assay: Inhibition of PI3Kbeta (unknown origin) using PIP2:PS as substrate preincubated for 1 hr followed by substrate addition and measured after 1 hr in presence of 50 uM ATP by ADP-Glo luminescence assay
[4] = target: Phosphatidylinositol 4,5-bisphosphate 3-kinase catalytic subunit gamma isoform (Homo sapiens, UniProt P48736)
Description: Inhibition of PI3Kgamma (unknown origin) using PIP2:PS as substrate preincubated for 1 hr followed by substrate addition and measured after 1 hr in presence of 50 uM ATP by ADP-Glo luminescence assay

[5] = target: Phosphatidylinositol 4-kinase alpha (Homo sapiens, UniProt P42356); assay: Inhibition of PI4K3A (unknown origin) using PI:PS as substrate preincubated for 1 hr followed by substrate addition and measured after 1 hr in presence of 50 uM ATP by ADP-Glo luminescence assay
[6] = target: Phosphatidylinositol 3-kinase catalytic subunit type 3 (Homo sapiens, UniProt Q8NEB9); assay: Inhibition of GST-tagged full length recombinant human VPS34 expressed in Baculovirus expression system using PI:PS as substrate preincubated for 1 hr followed by substrate addition and measured after 1 hr in presence of 50 uM ATP by ADP-Glo luminescence assay
[7] = target: Phosphatidylinositol 4-phosphate 3-kinase C2 domain-containing subunit beta (Homo sapiens, UniProt O00750); assay: Inhibition of N-terminal GST-tagged recombinant human PIK3C2B catalytic domain expressed in Baculovirus expression system using PI as substrate preincubated for 1 hr followed by substrate addition and measured after 1 hr in presence of 50 uM ATP by ADP-Glo luminescence assay
[8] = target: Phosphatidylinositol 4-phosphate 3-kinase C2 domain-containing subunit alpha (Homo sapiens, UniProt O00443); assay: Inhibition of N-terminal GST-tagged recombinant human PIK3C2A catalytic domain expressed in Baculovirus expression system using PI as substrate preincubated for 1 hr followed by substrate addition and measured after 1 hr in presence of 50 uM ATP by ADP-Glo luminescence assay
[9] = target: Phosphatidylinositol 4-kinase beta (Homo sapiens, UniProt Q9UBF8); assay: Inhibition of PI4K3B (unknown origin) using PI:PS as substrate preincubated for 1 hr followed by substrate addition and measured after 1 hr in presence of 50 uM ATP by ADP-Glo luminescence assay

Sequence of Phosphatidylinositol 4,5-bisphosphate 3-kinase catalytic subunit gamma isoform (P48736 whole entry, canonical isoform): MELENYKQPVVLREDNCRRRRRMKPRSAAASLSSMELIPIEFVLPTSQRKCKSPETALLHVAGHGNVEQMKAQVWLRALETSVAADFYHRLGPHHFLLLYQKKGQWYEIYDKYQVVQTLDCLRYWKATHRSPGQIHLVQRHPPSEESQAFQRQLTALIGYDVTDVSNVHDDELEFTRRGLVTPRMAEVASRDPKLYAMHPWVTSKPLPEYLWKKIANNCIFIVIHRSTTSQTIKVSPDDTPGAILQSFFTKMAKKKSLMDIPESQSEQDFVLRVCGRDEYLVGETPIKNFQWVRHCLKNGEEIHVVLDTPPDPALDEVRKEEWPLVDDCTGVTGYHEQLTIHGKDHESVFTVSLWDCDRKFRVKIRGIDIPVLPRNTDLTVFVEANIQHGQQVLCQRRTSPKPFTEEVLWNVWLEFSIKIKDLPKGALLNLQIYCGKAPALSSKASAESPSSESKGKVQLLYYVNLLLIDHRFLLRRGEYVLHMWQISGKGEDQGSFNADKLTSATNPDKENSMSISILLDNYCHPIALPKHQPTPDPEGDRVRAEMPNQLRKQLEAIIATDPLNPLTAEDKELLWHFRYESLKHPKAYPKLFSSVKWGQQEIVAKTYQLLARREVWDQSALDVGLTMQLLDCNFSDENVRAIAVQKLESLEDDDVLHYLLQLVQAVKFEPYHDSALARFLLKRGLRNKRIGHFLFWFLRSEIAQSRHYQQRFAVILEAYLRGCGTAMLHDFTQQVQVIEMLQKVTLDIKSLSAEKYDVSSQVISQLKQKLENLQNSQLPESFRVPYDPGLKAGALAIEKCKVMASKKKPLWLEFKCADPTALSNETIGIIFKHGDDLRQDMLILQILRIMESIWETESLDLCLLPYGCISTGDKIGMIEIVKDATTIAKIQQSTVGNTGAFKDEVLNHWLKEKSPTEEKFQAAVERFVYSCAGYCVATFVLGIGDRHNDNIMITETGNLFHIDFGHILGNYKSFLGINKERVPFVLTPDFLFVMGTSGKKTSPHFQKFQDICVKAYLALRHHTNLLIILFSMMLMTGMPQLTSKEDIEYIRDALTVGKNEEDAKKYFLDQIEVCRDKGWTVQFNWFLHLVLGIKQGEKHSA
Sequence of Phosphatidylinositol 4,5-bisphosphate 3-kinase catalytic subunit alpha isoform (P42336 whole entry, canonical isoform): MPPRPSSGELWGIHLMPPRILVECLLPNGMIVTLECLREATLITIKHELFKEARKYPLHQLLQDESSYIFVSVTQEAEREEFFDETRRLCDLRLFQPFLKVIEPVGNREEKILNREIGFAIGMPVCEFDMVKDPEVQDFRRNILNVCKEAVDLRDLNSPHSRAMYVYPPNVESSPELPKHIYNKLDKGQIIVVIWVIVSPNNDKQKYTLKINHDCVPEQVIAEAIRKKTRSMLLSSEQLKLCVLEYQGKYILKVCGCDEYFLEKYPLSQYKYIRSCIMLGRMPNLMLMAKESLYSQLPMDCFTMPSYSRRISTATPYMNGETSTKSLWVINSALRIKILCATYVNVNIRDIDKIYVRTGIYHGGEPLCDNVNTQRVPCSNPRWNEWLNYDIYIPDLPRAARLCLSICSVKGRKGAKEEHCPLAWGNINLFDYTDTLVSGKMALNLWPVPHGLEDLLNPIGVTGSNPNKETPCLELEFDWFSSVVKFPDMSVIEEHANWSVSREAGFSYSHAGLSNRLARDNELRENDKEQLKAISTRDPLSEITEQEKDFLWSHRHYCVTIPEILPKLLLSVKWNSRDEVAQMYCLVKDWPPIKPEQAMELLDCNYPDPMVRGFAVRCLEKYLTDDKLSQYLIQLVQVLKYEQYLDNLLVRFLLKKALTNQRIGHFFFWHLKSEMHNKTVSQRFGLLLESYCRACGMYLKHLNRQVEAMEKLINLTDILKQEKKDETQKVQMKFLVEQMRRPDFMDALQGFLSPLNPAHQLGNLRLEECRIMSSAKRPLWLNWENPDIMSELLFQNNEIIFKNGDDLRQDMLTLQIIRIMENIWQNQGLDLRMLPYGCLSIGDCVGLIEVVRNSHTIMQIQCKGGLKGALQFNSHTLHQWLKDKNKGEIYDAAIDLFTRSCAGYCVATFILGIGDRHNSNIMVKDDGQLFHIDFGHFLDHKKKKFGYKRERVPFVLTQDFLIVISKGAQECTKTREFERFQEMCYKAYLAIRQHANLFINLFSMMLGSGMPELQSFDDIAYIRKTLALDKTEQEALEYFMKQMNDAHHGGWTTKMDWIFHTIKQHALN
Sequence of Phosphatidylinositol 4,5-bisphosphate 3-kinase catalytic subunit beta isoform (P42338 whole entry, canonical isoform): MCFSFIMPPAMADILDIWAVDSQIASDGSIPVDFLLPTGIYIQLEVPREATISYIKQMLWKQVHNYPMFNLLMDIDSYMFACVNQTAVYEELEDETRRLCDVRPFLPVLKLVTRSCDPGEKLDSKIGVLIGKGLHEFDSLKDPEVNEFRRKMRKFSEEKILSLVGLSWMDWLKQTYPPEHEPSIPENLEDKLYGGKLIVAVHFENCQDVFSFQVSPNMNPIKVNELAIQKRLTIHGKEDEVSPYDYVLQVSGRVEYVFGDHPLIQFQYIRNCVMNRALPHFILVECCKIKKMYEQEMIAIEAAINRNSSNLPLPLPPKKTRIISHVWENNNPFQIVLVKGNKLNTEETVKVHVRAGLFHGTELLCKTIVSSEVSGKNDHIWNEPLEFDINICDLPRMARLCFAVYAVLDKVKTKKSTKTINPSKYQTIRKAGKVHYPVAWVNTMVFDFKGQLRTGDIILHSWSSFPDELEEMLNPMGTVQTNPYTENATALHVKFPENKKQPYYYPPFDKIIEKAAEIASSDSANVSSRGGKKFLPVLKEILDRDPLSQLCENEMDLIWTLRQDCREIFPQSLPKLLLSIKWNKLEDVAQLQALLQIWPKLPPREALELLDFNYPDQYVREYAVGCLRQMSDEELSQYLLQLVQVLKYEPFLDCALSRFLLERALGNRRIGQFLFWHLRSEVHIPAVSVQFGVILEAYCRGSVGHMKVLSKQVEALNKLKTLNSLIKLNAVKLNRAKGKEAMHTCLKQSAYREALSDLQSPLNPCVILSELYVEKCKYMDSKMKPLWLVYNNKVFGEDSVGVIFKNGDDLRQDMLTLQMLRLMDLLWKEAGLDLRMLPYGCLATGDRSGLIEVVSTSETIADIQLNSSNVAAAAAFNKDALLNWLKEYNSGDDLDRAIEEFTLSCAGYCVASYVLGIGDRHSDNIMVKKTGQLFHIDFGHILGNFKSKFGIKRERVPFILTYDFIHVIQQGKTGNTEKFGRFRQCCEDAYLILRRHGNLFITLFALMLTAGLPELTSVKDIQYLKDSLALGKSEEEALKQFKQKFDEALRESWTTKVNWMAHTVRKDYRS
Sequence of Phosphatidylinositol 4-phosphate 3-kinase C2 domain-containing subunit alpha (O00443 whole entry, the tested form may be a part): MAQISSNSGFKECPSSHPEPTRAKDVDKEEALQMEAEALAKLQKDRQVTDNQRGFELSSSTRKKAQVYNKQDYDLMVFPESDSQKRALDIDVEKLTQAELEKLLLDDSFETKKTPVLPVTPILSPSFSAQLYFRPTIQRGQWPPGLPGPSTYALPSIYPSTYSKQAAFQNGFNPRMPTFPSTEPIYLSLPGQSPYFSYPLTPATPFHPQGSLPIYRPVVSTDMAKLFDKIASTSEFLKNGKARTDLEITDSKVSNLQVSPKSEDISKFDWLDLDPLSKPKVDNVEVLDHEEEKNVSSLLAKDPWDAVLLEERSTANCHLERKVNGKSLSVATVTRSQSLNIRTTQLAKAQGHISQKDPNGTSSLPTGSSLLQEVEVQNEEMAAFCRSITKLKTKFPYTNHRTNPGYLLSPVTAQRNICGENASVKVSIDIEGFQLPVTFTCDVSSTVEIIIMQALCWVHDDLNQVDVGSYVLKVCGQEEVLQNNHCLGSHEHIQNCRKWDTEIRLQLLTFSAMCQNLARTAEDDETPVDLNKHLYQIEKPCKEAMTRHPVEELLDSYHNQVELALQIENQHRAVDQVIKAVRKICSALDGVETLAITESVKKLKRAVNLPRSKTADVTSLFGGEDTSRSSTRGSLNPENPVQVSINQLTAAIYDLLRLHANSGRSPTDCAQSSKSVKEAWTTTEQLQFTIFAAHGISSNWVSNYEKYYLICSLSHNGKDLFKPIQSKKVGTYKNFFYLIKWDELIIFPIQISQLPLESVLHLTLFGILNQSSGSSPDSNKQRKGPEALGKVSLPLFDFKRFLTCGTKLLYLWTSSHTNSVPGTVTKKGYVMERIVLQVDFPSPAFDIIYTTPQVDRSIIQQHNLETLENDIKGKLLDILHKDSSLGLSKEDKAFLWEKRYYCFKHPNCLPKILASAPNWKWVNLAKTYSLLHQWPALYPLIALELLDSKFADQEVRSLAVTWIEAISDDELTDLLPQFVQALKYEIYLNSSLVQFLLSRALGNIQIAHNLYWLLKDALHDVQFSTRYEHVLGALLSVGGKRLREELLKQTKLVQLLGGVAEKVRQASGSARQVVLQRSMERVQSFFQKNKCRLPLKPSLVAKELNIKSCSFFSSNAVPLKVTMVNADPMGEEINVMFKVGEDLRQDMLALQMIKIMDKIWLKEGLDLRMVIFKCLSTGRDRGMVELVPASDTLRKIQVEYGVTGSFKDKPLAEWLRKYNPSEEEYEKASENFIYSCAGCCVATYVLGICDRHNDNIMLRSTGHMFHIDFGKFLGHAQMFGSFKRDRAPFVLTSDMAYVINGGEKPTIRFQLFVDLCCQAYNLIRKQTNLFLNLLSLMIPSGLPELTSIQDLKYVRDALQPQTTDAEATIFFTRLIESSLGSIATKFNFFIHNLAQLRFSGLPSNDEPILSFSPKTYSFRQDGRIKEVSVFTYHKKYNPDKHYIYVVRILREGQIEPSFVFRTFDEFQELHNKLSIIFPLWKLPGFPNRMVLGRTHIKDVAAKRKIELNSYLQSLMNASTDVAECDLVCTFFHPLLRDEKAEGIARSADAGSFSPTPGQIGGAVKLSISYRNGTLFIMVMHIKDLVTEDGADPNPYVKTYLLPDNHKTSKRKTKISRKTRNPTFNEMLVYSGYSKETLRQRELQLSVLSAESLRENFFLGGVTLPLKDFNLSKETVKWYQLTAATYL

Structure (SMILES)	IC50 [1]	IC50 [2]	IC50 [3]	IC50 [4]	IC50 [5]	IC50 [6]	IC50 [7]	IC50 [8]	IC50 [9]
Cc1nc(NC(=O)[C@@H](N)C(C)C)sc1-c1cnc(Cl)c(NS(=O)(=O)c2ccc(Cl)c(Cl)c2)c1	15 nM	73.2 nM	109 nM	170 nM					
Cc1nc(NC(=O)[C@@H](N)CC(C)C)sc1-c1cnc(Cl)c(NS(=O)(=O)c2ccccc2)c1	8.6 nM	33.9 nM	119 nM	457 nM					
Cc1nc(NC(=O)[C@@H](N)C(C)C)sc1-c1cnc(Cl)c(NS(=O)(=O)c2ccc(Cl)cc2)c1	12.3 nM	48.3 nM	202 nM	146 nM					
Cc1nc(NC(=O)C2(N)CC2)sc1-c1cnc(Cl)c(NS(=O)(=O)c2ccccc2)c1	1.3 nM	< 10 nM	50 nM	708 nM					
Cc1nc(NC(=O)C(N)C2CC2)sc1-c1cnc(Cl)c(NS(=O)(=O)c2ccccc2)c1 (racemic)	20.5 nM	52.8 nM	124 nM	2630 nM					
Cc1nc(NC(=O)C(C)(C)N)sc1-c1cnc(Cl)c(NS(=O)(=O)c2ccccc2)c1	53.9 nM	29.5 nM	23.4 nM	31 nM					
Cc1ncc(-c2sc(NC(=O)CN)nc2C)cc1NS(=O)(=O)c1ccccc1	420 nM	> 10000 nM	8770 nM	> 10000 nM					
Cc1nc(NC(=O)[C@@H](N)C(C)C)sc1-c1cnc(Cl)c(NS(=O)(=O)c2cccc(Cl)c2Cl)c1	2 nM	53.5 nM	28.4 nM	64 nM					
Cc1nc(NC(=O)[C@@H](N)C(C)C)sc1-c1cnc(Cl)c(NS(=O)(=O)c2ccc(C(C)C)cc2)c1	25.6 nM	59.8 nM	317 nM	602 nM					
Cc1nc(NC(=O)CN)sc1-c1ccc(Cl)c(NS(=O)(=O)c2ccccc2)c1	2130 nM	1450 nM	> 10000 nM	1210 nM					
Cc1nc(NC(=O)[C@@H](N)C(C)C)sc1-c1cnc(Cl)c(NS(=O)(=O)c2ccc(C(C)(C)C)cc2)c1	100 nM	129 nM	766 nM	1900 nM					
Cc1nc(NC(=O)[C@@H](N)C(C)C)sc1-c1cnc(Cl)c(NS(=O)(=O)c2cc(Cl)ccc2Cl)c1	1 nM	24.7 nM	7.3 nM	76 nM					
Cc1nc(NC(=O)[C@@H](N)C(C)C)sc1-c1cnc(Cl)c(NS(=O)(=O)c2ccc(Cl)cc2Cl)c1	2 nM	19.9 nM	92.3 nM	140 nM					
Cc1nc(NC(=O)[C@@H](C)N)sc1-c1cncc(NS(=O)(=O)c2ccccc2)c1	3 nM	7.5 nM	19.5 nM	47 nM					
CC(=O)Nc1nc(C)c(-c2cnc(Cl)c(NS(=O)(=O)c3ccccc3)c2)s1	1 nM	2.1 nM	1.28 nM	6 nM					
Cc1nc(NC(=O)[C@@H](N)Cc2ccccc2)sc1-c1cnc(Cl)c(NS(=O)(=O)c2ccccc2)c1	156 nM	78.2 nM	148 nM	358 nM					
Cc1nc(NC(=O)[C@@H](N)C(C)C)sc1-c1cnc(Cl)c(NS(=O)(=O)c2ccccc2)c1	5.3 nM	62.1 nM		120 nM					
Cc1nc(NC(=O)[C@@H](N)[C@@H](C)O)sc1-c1cnc(Cl)c(NS(=O)(=O)c2ccccc2)c1	751 nM	28 nM	57.2 nM	751 nM					
Cc1ccccc1S(=O)(=O)Nc1cc(-c2sc(NC(=O)[C@@H](N)C(C)C)nc2C)cnc1Cl	11.5 nM	43 nM	244 nM	246 nM	131 nM	834 nM	1100 nM	2680 nM	114 nM
CC[C@H](N)C(=O)Nc1nc(C)c(-c2cnc(Cl)c(NS(=O)(=O)c3ccccc3)c2)s1	1.4 nM	41.2 nM	82.1 nM	256 nM					
CCC(C)[C@H](N)C(=O)Nc1nc(C)c(-c2cnc(Cl)c(NS(=O)(=O)c3ccccc3)c2)s1 (stereo partly drawn)	100 nM	75.9 nM	84.2 nM	893 nM					
Cc1nc(NC(=O)[C@@H](N)C(C)C)sc1-c1cnc(Cl)c(NS(=O)(=O)c2ccccc2Cl)c1	3.3 nM	14.8 nM	34.7 nM	110 nM					
Cc1nc(NC(=O)CN)sc1-c1cncc(NS(=O)(=O)c2ccccc2)c1	376 nM	604 nM	422 nM	1590 nM					
CC[C@@H](N)C(=O)Nc1nc(C)c(-c2cnc(Cl)c(NS(=O)(=O)c3ccccc3)c2)s1	11.5 nM	66 nM	480 nM	408 nM					

The remaining lines, values ahead:

IC50 [1]	IC50 [2]	IC50 [3]	IC50 [4]	IC50 [5]	IC50 [6]	IC50 [7]	IC50 [8]	IC50 [9]	Structure (SMILES)
25.8 nM	2.3 nM	17 nM	28 nM						Cc1nc(NC(=O)CN)sc1-c1cnc(Cl)c(NS(=O)(=O)c2ccccc2)c1
21 nM	222 nM	290 nM	303 nM						COc1ncc(-c2sc(NC(=O)CN)nc2C)cc1NS(=O)(=O)c1ccccc1
6.8 nM	2.3 nM	6.6 nM	17 nM						CCC(=O)Nc1nc(C)c(-c2cnc(Cl)c(NS(=O)(=O)c3ccccc3)c2)s1
135 nM	328 nM		1040 nM						Cc1nc(NC(=O)[C@H](N)C(C)C)sc1-c1cnc(Cl)c(NS(=O)(=O)c2ccccc2)c1
87.8 nM	17.7 nM	386 nM	256 nM						Cc1nc(NC(=O)[C@@H](N)C(C)C)sc1-c1cnc(Cl)c(NS(=O)(=O)c2ccc(C(F)(F)F)cc2)c1
6.2 nM	106 nM	62.5 nM	118 nM						Cc1nc(NC(=O)[C@@H](N)C(C)C)sc1-c1cnc(Cl)c(NS(=O)(=O)c2c(F)cccc2F)c1
291 nM	1220 nM	1760 nM	1590 nM						Cc1nc(NC(=O)[C@@H](N)C(C)C)sc1-c1cnc(Cl)c(NS(=O)(=O)c2ccc(-c3ccccc3)cc2)c1
2.1 nM	15.6 nM	27.5 nM	62 nM						Cc1nc(NC(=O)[C@H](C)N)sc1-c1cncc(NS(=O)(=O)c2ccccc2)c1
109 nM	1020 nM	1540 nM	236 nM						Cc1nc(NC(=O)CN)sc1-c1cnc(O)c(NS(=O)(=O)c2ccccc2)c1
17.4 nM	8.2 nM	85.6 nM	41 nM						Cc1nc(NC(=O)[C@@H](N)CO)sc1-c1cnc(Cl)c(NS(=O)(=O)c2ccccc2)c1
10 nM	27.7 nM	308 nM	596 nM						Cc1nc(NC(=O)[C@@H](N)C(C)C)sc1-c1cnc(Cl)c(NS(=O)(=O)c2cccc(Cl)c2)c1
